What all share (assay type): in vivo
Experiment [1] deals with Southern corn rootworm (Diabrotica undecimpuctata howardi Barber). Description: Mite/insect screen: corn rootworm, treated soil. The conditions noted are these: percent mortality, soil treatment; for mortality at 12 ppm: CRW rate 12.00 PPM; for mortality at 24 ppm: CRW rate 24.00 PPM.
The subject of the next experiment is Pyricularia oryzae. The conditions noted are these: disease control rating; foliar spray; host rice; 400 ppm (+++ at 100 ppm).
The next experiment deals with Botrytis cinerea. Description: Greenhouse Test 1, foliar spray fungicide screen: gray mold. The conditions noted are these: disease control rating, host grape berries, 400 ppm (+++ at 100 ppm).
Experiment [2] relates to melon aphids (Aphis gossypii Glover). The experiment can be described thus: Mite/insect screen: melon aphids on sprayed squash cotyledons. The conditions noted are these: percent mortality, leaf spray, read-out: MA RESULTS; for mortality at 200 ppm: rate 200 PPM; for mortality at 400 ppm: rate 400 PPM.
Experiment [3] deals with Erysiphe graminis tritici. The experiment can be described thus: Greenhouse Test 1, foliar spray fungicide screen: powdery mildew. The conditions noted are these: disease control rating, host wheat, 400 ppm (+++ at 100 ppm).
The subject of experiment [4] is Pseudoperonospora cubensis. The experiment can be described thus: Greenhouse Test 1, foliar spray fungicide screen: downy mildew. The settings on record: disease control rating, host squash, 400 ppm (+++ at 100 ppm).
Experiment [5] relates to southern armyworm (Spodopetra eridania Cramer). Description: Mite/insect screen: southern armyworm on sprayed squash leaves. The settings on record: Spodoptera eridania, percent mortality, leaf spray, read-out: SAW RESULTS; for mortality at 200 ppm: rate 200 PPM; for mortality at 400 ppm: rate 400 PPM.
Experiment [6] relates to Puccinia recondita tritici. Description: Greenhouse Test 1, foliar spray fungicide screen: leaf rust. The settings on record: disease control rating, host wheat, 400 ppm (+++ at 100 ppm).
Experiment [7] relates to Twospotted spider mites (Tetranychus urticae Koch). Description: Mite/insect screen: twospotted spider mites on sprayed squash cotyledons. The conditions noted are these: percent mortality, leaf spray, read-out: SM RESULTS; for mortality at 200 ppm: rate 200 PPM; for mortality at 400 ppm: rate 400 PPM.
The next experiment concerns Septoria tritici. Description: Greenhouse Test 1, foliar spray fungicide screen: leaf blotch. The settings on record: disease control rating, host wheat, 400 ppm (+++ at 100 ppm).
The subject of a further experiment is Venturia inaequalis. The experiment can be described thus: Greenhouse Test 1, foliar spray fungicide screen: apple scab. The settings on record: disease control rating, host apple seedling, 400 ppm (+++ at 100 ppm).
Another experiment has as its system Cercospora beticola. The experiment can be described thus: Greenhouse Test 1, foliar spray fungicide screen: leaf spot. The settings on record: disease control rating, host sugar beet, 400 ppm (+++ at 100 ppm).

In experiment [1], `Fc1ccc(Oc2ccnc3ncccc23)cc1` [Example 1, 4-(4-fluorophenoxy)-1,8-naphthyridine] had a mortality at 12 ppm of 0%. Besides, the mortality at 24 ppm in experiment [1] was found to be 0%. Moreover, the “RICE BLAST” value in the experiment on Pyricularia oryzae was “- (- = 0-19% control at 400 ppm)”. Also, the “GRAY MOLD” value in the experiment with Botrytis cinerea was “- (- = 0-19% control at 400 ppm)”. Further, the mortality at 200 ppm in experiment [2], in [5] and in experiment [7] was 0% in each case. In addition, the mortality at 400 ppm in experiment [2], in experiment [5] and in experiment [7] was 0% each time. In [3], the “POWD MDEW” value is reported as “+ (+ = 20-89% control at 400 ppm)”. Besides, the “DOWN MDEW” value in experiment [4] is given as “++ (++ = 90-100% control at 400 ppm)”. Further, in experiment [6], the “LEAF RUST” value is “++ (++ = 90-100% control at 400 ppm)”.

Consider `Fc1ccc(Oc2ccnc3cnccc23)cc1` [Example 2, 4-(4-fluorophenoxy)-1,7-naphthyridine], for which, in experiment [1], the mortality at 12 ppm amounted to 0% and the mortality at 24 ppm came to 0%. In the experiment on Pyricularia oryzae, the “RICE BLAST” value is on record as “- (- = 0-19% control at 400 ppm)”. Further, the “GRAY MOLD” value in the experiment on Botrytis cinerea is “- (- = 0-19% control at 400 ppm)”. For the same compound, in experiment [2], the mortality at 200 ppm came out at 30% and the mortality at 400 ppm was found to be 0%. Moreover, the “POWD MDEW” value in experiment [3] was “+ (+ = 20-89% control at 400 ppm)”. Further, the “DOWN MDEW” value in [4] is “+ (+ = 20-89% control at 400 ppm)”. For the same compound, in experiment [5], the mortality at 200 ppm stood at 0% and the mortality at 400 ppm was 0%. Moreover, the “LEAF RUST” value in experiment [6] is reported as “+ (+ = 20-89% control at 400 ppm)”. In experiment [7], the mortality at 200 ppm worked out at 40% and the mortality at 400 ppm was 0%.

As for `Fc1ccc(Oc2ccnc3ccncc23)cc1` [Example 3, 4-(4-fluorophenoxy)-1,6-naphthyridine], the mortality at 12 ppm in experiment [1] was 0%. For the same compound, the mortality at 24 ppm in experiment [1] was 0%. For the same compound, in the experiment on Pyricularia oryzae, the “RICE BLAST” value was “- (- = 0-19% control at 400 ppm)”. For the same compound, in the experiment with Botrytis cinerea, the “GRAY MOLD” value is “- (- = 0-19% control at 400 ppm)”. In addition, the mortality at 200 ppm in [2], in [5] and in experiment [7] was 0% each time. The mortality at 400 ppm in experiment [2], in [5] and in experiment [7] was 0% each time. The “POWD MDEW” value in experiment [3] is “- (- = 0-19% control at 400 ppm)”. For the same compound, in [4], the “DOWN MDEW” value is “- (- = 0-19% control at 400 ppm)”. The “LEAF RUST” value in [6] is “- (- = 0-19% control at 400 ppm)”.

The compound `Fc1ccc(Oc2ccnc3cccnc23)cc1` [Example 4, 4-(4-fluorophenoxy)-1,5-naphthyridine] came in with a mortality at 24 ppm in experiment [1] of 0%. In addition, in the experiment on Pyricularia oryzae, the “RICE BLAST” value was “+ (+ = 20-89% control at 400 ppm)”. In addition, the “GRAY MOLD” value in the experiment with Botrytis cinerea is “- (- = 0-19% control at 400 ppm)”. For the same compound, the mortality at 400 ppm turned out to be 80% in experiment [2], 0% in experiment [5] and 80% in experiment [7]. In addition, in [3], the “POWD MDEW” value is reported as “+ (+ = 20-89% control at 400 ppm)”. For the same compound, the “DOWN MDEW” value in experiment [4] is on record as “++ (++ = 90-100% control at 400 ppm)”. For the same compound, the “LEAF RUST” value in experiment [6] is “+ (+ = 20-89% control at 400 ppm)”.

In [1], `CC(C)(C)c1ccc(CCOc2ccnc3cccnc23)cc1` [Example 5, 4-[2-[4-(t-butyl)phenyl]ethoxy]-1,5-naphthyridine] had a mortality at 12 ppm of 0% and a mortality at 24 ppm of 0%. Moreover, the “RICE BLAST” value with Pyricularia oryzae is “++ (++ = 90-100% control at 400 ppm)”. In addition, the “GRAY MOLD” value in the experiment with Botrytis cinerea is listed as “- (- = 0-19% control at 400 ppm)”. In addition, in experiment [2], the mortality at 200 ppm came to 50% and the mortality at 400 ppm was determined as 80%. In addition, the “POWD MDEW” value in experiment [3] is listed as “+ (+ = 20-89% control at 400 ppm)”. In addition, the “DOWN MDEW” value in experiment [4] is listed as “+++ (+++ = 90-100% control at 100 ppm)”. In addition, in experiment [5], the mortality at 200 ppm was 0% and the mortality at 400 ppm was determined as 0%. Further, in experiment [6], the “LEAF RUST” value was “++ (++ = 90-100% control at 400 ppm)”. Also, in [7], the mortality at 200 ppm was found to be 100% and the mortality at 400 ppm amounted to 100%.

In [1], `CCOc1ccc(CCCOc2ccnc3cccnc23)cc1` [Example 6, 4-[3-(4-ethoxyphenyl)propoxy]-1,5-naphthyridine] registered a mortality at 12 ppm of 0% and a mortality at 24 ppm of 0%. Moreover, the “RICE BLAST” value in the experiment with Pyricularia oryzae is recorded as “- (- = 0-19% control at 400 ppm)”. The “GRAY MOLD” value in the experiment on Botrytis cinerea was “- (- = 0-19% control at 400 ppm)”. In [2], the mortality at 200 ppm is 0% and the mortality at 400 ppm worked out at 0%. In addition, the “POWD MDEW” value in experiment [3] was “- (- = 0-19% control at 400 ppm)”. Moreover, the “DOWN MDEW” value in experiment [4] was “- (- = 0-19% control at 400 ppm)”. In experiment [5], the mortality at 200 ppm is 0% and the mortality at 400 ppm turned out to be 0%. The “LEAF RUST” value in experiment [6] is “- (- = 0-19% control at 400 ppm)”. Also, in experiment [7], the mortality at 200 ppm is 0% and the mortality at 400 ppm is 0%.

In [1], `CC(C)(C)c1ccc(CCNc2ccnc3cccnc23)cc1` [Example 7, N-[2-[4-(t-butyl)phenyl]ethyl]-1,5-naphthyridin-4-amine] had a mortality at 12 ppm of 0% and a mortality at 24 ppm of 0%. The “RICE BLAST” value in the experiment with Pyricularia oryzae is given as “++ (++ = 90-100% control at 400 ppm)”. Also, in the experiment on Botrytis cinerea, the “GRAY MOLD” value is given as “- (- = 0-19% control at 400 ppm)”. In addition, in experiment [2], the mortality at 200 ppm was found to be 90% and the mortality at 400 ppm was determined as 100%. Also, the “POWD MDEW” value in experiment [3] is given as “++ (++ = 90-100% control at 400 ppm)”. Moreover, the “DOWN MDEW” value in experiment [4] is “+++ (+++ = 90-100% control at 100 ppm)”. In [5], the mortality at 200 ppm came out at 0% and the mortality at 400 ppm amounted to 0%. Further, the “LEAF RUST” value in experiment [6] is “+++ (+++ = 90-100% control at 100 ppm)”. In experiment [7], the mortality at 200 ppm amounted to 90% and the mortality at 400 ppm turned out to be 100%.

In experiment [1], `Clc1ccccc1Oc1ccnc2ncccc12` [Example 8, 4-(2-chlorophenoxy)-1,8-naphthyridine] came in with a mortality at 12 ppm of 0% and a mortality at 24 ppm of 0%. Besides, the “RICE BLAST” value in the experiment on Pyricularia oryzae was “+ (+ = 20-89% control at 400 ppm)”. Further, the “GRAY MOLD” value in the experiment on Botrytis cinerea is “- (- = 0-19% control at 400 ppm)”. For the same compound, in [2], the mortality at 200 ppm amounted to 0% and the mortality at 400 ppm stood at 0%. In addition, the “POWD MDEW” value in [3] is given as “- (- = 0-19% control at 400 ppm)”. Moreover, in experiment [4], the “DOWN MDEW” value is given as “++ (++ = 90-100% control at 400 ppm)”. Besides, in [5], the mortality at 200 ppm is 0% and the mortality at 400 ppm amounted to 0%. In experiment [6], the “LEAF RUST” value is recorded as “+ (+ = 20-89% control at 400 ppm)”. In experiment [7], the mortality at 200 ppm came to 0% and the mortality at 400 ppm came out at 0%.

In experiment [1], `CCOc1ccc(CCOc2ccnc3cccnc23)cc1` [Example 9, 4-[2-(4-ethoxyphenyl)ethoxy]-1,5-naphthyridine] gave a mortality at 12 ppm of 0% and a mortality at 24 ppm of 0%. In addition, the “RICE BLAST” value with Pyricularia oryzae is “++ (++ = 90-100% control at 400 ppm)”. Moreover, the “GRAY MOLD” value in the experiment with Botrytis cinerea is recorded as “- (- = 0-19% control at 400 ppm)”. Besides, in [2], the mortality at 200 ppm turned out to be 100% and the mortality at 400 ppm amounted to 100%. Further, the “POWD MDEW” value in [3] is recorded as “+ (+ = 20-89% control at 400 ppm)”. In addition, in [4], the “DOWN MDEW” value was “++ (++ = 90-100% control at 400 ppm)”. For the same compound, in experiment [5], the mortality at 200 ppm amounted to 0% and the mortality at 400 ppm was 0%. Besides, the “LEAF RUST” value in experiment [6] is “+++ (+++ = 90-100% control at 100 ppm)”. Moreover, in [7], the mortality at 200 ppm worked out at 40% and the mortality at 400 ppm is 80%.

On to `c1ccc(CCNc2ccnc3cccnc23)cc1` [Example 10, N-(2-phenylethyl)-1,5-naphthyridin-4-amine], for which the mortality at 12 ppm in [1] amounted to 0%. For the same compound, the “RICE BLAST” value in the experiment with Pyricularia oryzae is recorded as “+ (+ = 20-89% control at 400 ppm)”. Further, in the experiment on Septoria tritici, the “LEAF BLOT” value is “- (- = 0-19% control at 400 ppm)”. In addition, the “GRAY MOLD” value with Botrytis cinerea is on record as “- (- = 0-19% control at 400 ppm)”. For the same compound, the mortality at 200 ppm in experiment [2], in experiment [5] and in experiment [7] was 0% each time. For the same compound, in experiment [3], the “POWD MDEW” value is on record as “+ (+ = 20-89% control at 400 ppm)”. In addition, the “DOWN MDEW” value in experiment [4] is “+++ (+++ = 90-100% control at 100 ppm)”. Besides, in experiment [6], the “LEAF RUST” value is on record as “+ (+ = 20-89% control at 400 ppm)”. Further, the “APPL SCAB” value in the experiment with Venturia inaequalis is recorded as “+ (+ = 20-89% control at 400 ppm)”. The “LEAF SPOT” value with Cercospora beticola is “+ (+ = 20-89% control at 400 ppm)”.

For the origin of these results see EP0410762A1, “Naphthyridine derivatives” (DowElanco, priority 1989, dated 1991).
